Source: EPA's ToxRefDB 2

Legend:
[1] = system: rat; settings: Prenatal developmental toxicity study, other, Oral, Gavage/Intubation, dose end: 15 GD
[2] = system: rat; settings: Subchronic oral toxicity in rodents, Fischer, Feed, dose end: 13 week, group: systemic, systemic / clinical chemistry / thyroxine (t4) / thyroxine (t4), total + systemic / clinical chemistry / triiodothyronine (t3) / …
[3] = system: rat; settings: Subchronic oral toxicity in rodents, other, Feed, dose end: 13 week, group: systemic, systemic / pathology microscopic / stomach / erosion + systemic / pathology microscopic / stomach / inflammation + systemic / pathology …
[4] = system: dog; settings: Subchronic oral toxicity in nonrodent, beagle, Feed, dose end: 13 week, group: systemic, systemic / clinical chemistry / globulins / globulins + systemic / clinical chemistry / protein / protein + systemic / hematology / platelet…
[5] = system: rat; settings: Multigenerational reproductive toxicity study, other, Oral, Feed, dose end: 2 generation
[6] = system: rat; settings: Prenatal developmental toxicity study, other, Oral, Gavage/Intubation, dose end: 15 GD; remark: listed apart in the source
[7] = system: rat; settings: Subchronic oral toxicity in rodents, other, Gavage/Intubation, dose end: 90 day, group: systemic, systemic / in life observation / body weight / body weight + systemic / in life observation / body weight / body weight gain + systemic / …
[8] = system: dog; settings: Subchronic oral toxicity in nonrodent, beagle, Gavage/Intubation, dose end: 91 day, group: systemic, systemic / in life observation / body weight / body weight + systemic / in life observation / body weight / body weight gain + systemic / …
[9] = system: dog; settings: Chronic toxicity, beagle, Oral, Feed, dose end: 104 week, group: systemic
[10] = system: mouse; settings: Carcinogenicity, cd1, Oral, Feed, dose end: 104 week, group: systemic
[11] = system: rat; settings: Multigenerational reproductive toxicity study, sprague dawley, Oral, Feed, dose end: 2 generation
[12] = system: rabbit; settings: Prenatal developmental toxicity study, new zealand white, Oral, Gavage/Intubation, dose end: 28 GD
[13] = system: dog; settings: Subchronic oral toxicity in nonrodent, beagle, Feed, dose end: 90 day, group: systemic
[14] = system: rat; settings: Developmental neurotoxicity study; long evans; Injection; Subcutaneous; dose end: 132 PND; group: cannot be grouped; systemic / pathology gross / brain / reduced size + systemic / pathology microscopic / brain / depletion cellular
[15] = system: rat; settings: Combined chronic toxicity/carcinogenicity; Oral; Gavage/Intubation; dose end: 104 week; group: systemic; systemic / in life observation / body weight / body weight gain + systemic / in life observation / water consumption / water consumption + …
[16] = system: dog; settings: Subchronic oral toxicity in nonrodent, beagle, Capsule, dose end: 13 week, group: systemic
[17] = system: rat; settings: Subchronic oral toxicity in rodents, sprague dawley, Gavage/Intubation, dose end: 13 week, group: systemic
[18] = system: rat; settings: Prenatal developmental toxicity study, Charles River COBS CD rats, Oral, Gavage/Intubation, dose end: 20 GD
[19] = system: mouse; settings: Combined chronic toxicity/carcinogenicity, cd1, Oral, Gavage/Intubation, dose end: 24 month, group: systemic
[20] = system: dog; settings: Chronic toxicity; beagle; Oral; Capsule; dose end: 52 week; group: systemic; systemic / in life observation / body weight / body weight gain + systemic / in life observation / clinical signs / salivation + systemic / …
[21] = system: rat; settings: Multigenerational reproductive toxicity study, other, Oral, Gavage/Intubation, dose end: 2 generation
[22] = group: developmental, developmental / developmental malformation / bone / incomplete ossification + developmental / developmental malformation / bone / wavy + …
[23] = group: maternal, systemic / in life observation / body weight / body weight gain + systemic / in life observation / food consumption / food consumption
[24] = group: maternal, systemic / in life observation / body weight / body weight gain + systemic / in life observation / food consumption / food consumption + …
[25] = group: offspring, systemic / organ weight / spleen / absolute + systemic / organ weight / spleen / relative to body weight + developmental / offspring …
[26] = group: offspring, systemic / organ weight / spleen / absolute + systemic / organ weight / spleen / relative to body weight + systemic / organ weight / thymus…
[27] = group: parental, systemic / in life observation / body weight / body weight + systemic / in life observation / clinical signs / general pallor
[28] = group: developmental, developmental / developmental malformation / bone / wavy
[29] = group: maternal, systemic / in life observation / body weight / body weight gain
[30] = systemic / pathology microscopic / liver / [other] + systemic / clinical chemistry / alanine aminotransferase (alt/sgpt) / alanine …
[31] = systemic / pathology microscopic / liver / [other] + systemic / in life observation / body weight / body weight gain + systemic / in life …
[32] = systemic / pathology microscopic / liver / adenoma/carcinoma combined + systemic / pathology microscopic / liver / carcinoma + systemic / …
[33] = systemic / pathology microscopic / liver / carcinoma + systemic / pathology microscopic / liver / adenoma/carcinoma combined + systemic / …
[34] = group: offspring, systemic / in life observation / body weight / offspring (pup) weight
[35] = group: parental, systemic / pathology microscopic / epididymis / hypospermia + systemic / pathology microscopic / testes / atrophy + systemic / pathology …
[36] = group: developmental, developmental / developmental malformation / kidney / small renal papilla
[37] = group: maternal, systemic / in life observation / clinical signs / body surface staining + systemic / in life observation / food consumption / food …
[38] = systemic / clinical chemistry / cholesterol / cholesterol + systemic / clinical chemistry / albumin / albumin + systemic / in life …
[39] = systemic / in life observation / clinical signs / watery stools
[40] = systemic / organ weight / liver / absolute + systemic / in life observation / body weight / body weight gain + systemic / in life …
[41] = group: developmental, systemic / in life observation / body weight / offspring (pup) weight
[42] = group: maternal, systemic / in life observation / body weight / body weight gain + systemic / in life observation / clinical signs / salivation
[43] = systemic / organ weight / ovary / absolute + systemic / organ weight / ovary / relative to body weight + systemic / organ weight / adrenal …
[44] = group: offspring, systemic / in life observation / clinical signs / reduced body size
[45] = group: parental, systemic / in life observation / body weight / body weight gain

CNC.O=C(O)COc1ccc(Cl)cc1Cl [2,4-D, Dimethylamine salt]
LOAEL [1, 22]: 100 mg/kg/day
NEL [1, 22]: 12.5 mg/kg/day
NOAEL [1, 22]: 50 mg/kg/day
LEL ([1]; group: developmental, developmental / developmental malformation / general / [other]): 50 mg/kg/day
LEL [1, 23]: 50 mg/kg/day
LOAEL [1, 23]: 50 mg/kg/day
NEL [1, 24]: 12.5 mg/kg/day
NOAEL [1, 24]: 12.5 mg/kg/day
LEL [2]: 120 mg/kg/day
LOAEL [2]: 120 mg/kg/day
NEL [2]: 18.1 mg/kg/day
NOAEL [2]: 18.1 mg/kg/day

CCCCCCCCn1sc(Cl)c(Cl)c1=O [4,5-Dichloro-2-octyl-3(2H)-isothiazolone]
LEL [3]: 60.7 mg/kg/day
LOAEL [3]: 60.7 mg/kg/day
NEL [3]: 32.5 mg/kg/day
NOAEL [3]: 32.5 mg/kg/day
LEL [4]: 45.9 mg/kg/day
LOAEL [4]: 45.9 mg/kg/day
NEL [4]: 10.1 mg/kg/day
NOAEL [4]: 10.1 mg/kg/day
NEL [5, 25]: 10 mg/kg/day
NOAEL [5, 25]: 10 mg/kg/day
LEL [5, 26]: 20 mg/kg/day
LOAEL [5, 26]: 20 mg/kg/day
LOAEL ([5]; group: parental, systemic / in life observation / body weight / body weight + systemic / in life observation / body weight / body weight gain): 40 mg/kg/day
LEL ([5]; group: parental, systemic / in life observation / body weight / body weight + systemic / in life observation / body weight / body weight gain + systemic / in…): 40 mg/kg/day
NEL [5, 27]: 20 mg/kg/day
NOAEL [5, 27]: 20 mg/kg/day
LEL [6, 28]: 100 mg/kg/day
LOAEL [6, 28]: 100 mg/kg/day
NEL [6, 28]: 30 mg/kg/day
NOAEL [6, 28]: 30 mg/kg/day
LEL [6, 29]: 10 mg/kg/day
NEL [6, 29]: < 10 mg/kg/day
LOAEL ([6]; group: maternal, systemic / in life observation / clinical signs / defecation + systemic / in life observation / food consumption / food consumption): 30 mg/kg/day
NOAEL ([6]; group: maternal, systemic / in life observation / clinical signs / defecation + systemic / in life observation / food consumption / food consumption + …): 10 mg/kg/day

CCC(CN1CCOCC1)[N+](=O)[O-] (configuration not stated) [4-(2-Nitrobutyl)morpholine]
LEL [7]: 10 mg/kg/day
LOAEL [7]: > 50 mg/kg/day
NEL [7]: 5 mg/kg/day
NOAEL [7]: ≥ 50 mg/kg/day
LEL [8]: 25 mg/kg/day
LOAEL [8]: 25 mg/kg/day
NEL [8]: 10 mg/kg/day
NOAEL [8]: 10 mg/kg/day

CCCCNC(=O)n1c(NC(=O)OC)nc2ccccc21 [Benomyl]
LEL [9, 30]: 62.5 mg/kg/day
LOAEL [9, 30]: 62.5 mg/kg/day
NEL [9, 31]: 12.5 mg/kg/day
NOAEL [9, 31]: 12.5 mg/kg/day
LOAEL [10, 32]: > 750 mg/kg/day
NOAEL [10, 32]: ≥ 750 mg/kg/day
LEL [10, 33]: 75 mg/kg/day
NEL [10, 33]: < 75 mg/kg/day
LEL [11, 34]: 234 mg/kg/day
LOAEL [11, 34]: 234 mg/kg/day
NOAEL [11, 34]: 38 mg/kg/day
NEL ([11]; group: offspring, systemic / in life observation / body weight / offspring (pup) weight + systemic / in life observation / clinical signs / reduced body size): 38 mg/kg/day
LOAEL ([11]; group: parental, systemic / pathology microscopic / epididymis / hypospermia): 234 mg/kg/day
NOAEL ([11]; group: parental, systemic / pathology microscopic / epididymis / hypospermia + systemic / in life observation / body weight / body weight + systemic / in …): 38 mg/kg/day
LEL [11, 35]: 168 mg/kg/day
NEL [11, 35]: 28 mg/kg/day
LEL [12, 36]: 180 mg/kg/day
LOAEL [12, 36]: 180 mg/kg/day
NEL [12, 36]: 90 mg/kg/day
NOAEL [12, 36]: 90 mg/kg/day
LEL [12, 37]: 180 mg/kg/day
LOAEL [12, 37]: 180 mg/kg/day
NEL [12, 37]: 90 mg/kg/day
NOAEL [12, 37]: 90 mg/kg/day
LEL ([13]; systemic / clinical chemistry / cholesterol / cholesterol): 12.5 mg/kg/day
LOAEL ([13]; systemic / clinical chemistry / cholesterol / cholesterol + systemic / clinical chemistry / alanine aminotransferase (alt/sgpt) / alanine …): 37.5 mg/kg/day
NEL [13, 38]: 2.5 mg/kg/day
NOAEL [13, 38]: 12.5 mg/kg/day

COc1cc2c(c(OC)c1OC)-c1ccc(OC)c(=O)cc1[C@@H](NC(C)=O)CC2 [Colchicine]
LEL [14]: 0.4 mg/kg/day
LOAEL [14]: > 0.4 mg/kg/day
NEL [14]: < 0.4 mg/kg/day
NOAEL [14]: ≥ 0.4 mg/kg/day

CC1(C)[C@H](C(=O)O[C@H](C#N)c2cccc(Oc3ccccc3)c2)[C@@H]1C(Br)C(Br)(Br)Br (some centres not stated) [Tralomethrin]
LEL [15]: 3 mg/kg/day
LOAEL [15]: 3 mg/kg/day
NEL [15]: 0.75 mg/kg/day
NOAEL [15]: 0.75 mg/kg/day
LOAEL ([16]; systemic / hematology / erythrocyte (rbc) count differential / erythrocyte (rbc) + systemic / hematology / hemoglobin (hgb) / hemoglobin (…): 10 mg/kg/day
LEL [16, 39]: 0.1 mg/kg/day
NEL [16, 39]: < 0.1 mg/kg/day
NOAEL ([16]; systemic / in life observation / clinical signs / watery stools + systemic / hematology / erythrocyte (rbc) count differential / erythrocyte…): 1 mg/kg/day
LOAEL ([17]; systemic / organ weight / liver / absolute): 6 mg/kg/day
LEL ([17]; systemic / organ weight / liver / absolute + systemic / in life observation / body weight / body weight gain): 6 mg/kg/day
NEL [17, 40]: 1 mg/kg/day
NOAEL [17, 40]: 1 mg/kg/day
LEL [18, 41]: 12 mg/kg/day
LOAEL [18, 41]: > 12 mg/kg/day
NEL [18, 41]: 3 mg/kg/day
NOAEL [18, 41]: ≥ 12 mg/kg/day
LOAEL ([18]; group: maternal, systemic / in life observation / body weight / body weight gain + reproductive / offspring survival early / birth index / live birth index): 12 mg/kg/day
LEL ([18]; group: maternal, systemic / in life observation / body weight / body weight gain + reproductive / offspring survival early / birth index / live birth index…): 12 mg/kg/day
NEL [18, 42]: 3 mg/kg/day
NOAEL [18, 42]: 3 mg/kg/day
LEL [19, 43]: 0.75 mg/kg/day
NEL [19, 43]: < 0.75 mg/kg/day
LOAEL ([19]; systemic / pathology gross / skin / lesion(s) (nos)): 3 mg/kg/day
NOAEL ([19]; systemic / pathology gross / skin / lesion(s) (nos) + systemic / in life observation / clinical signs / abnormal motor movement + systemic…): 0.75 mg/kg/day
LEL [20]: 3 mg/kg/day
LOAEL [20]: 3 mg/kg/day
NEL [20]: 1 mg/kg/day
NOAEL [20]: 1 mg/kg/day
LEL [21, 44]: 0.75 mg/kg/day
LOAEL [21, 44]: 0.75 mg/kg/day
NEL [21, 44]: < 0.75 mg/kg/day
NOAEL [21, 44]: < 0.75 mg/kg/day
LEL [21, 45]: 3 mg/kg/day
LOAEL [21, 45]: 3 mg/kg/day
NEL [21, 45]: 0.75 mg/kg/day
NOAEL [21, 45]: 0.75 mg/kg/day
